In patent publication US10138255B2, “Piperazine derivatives as HIV protease inhibitors” (Merck Sharp & Dohme Corp., priority 2014, dated 2018):

System: HIV-1 (H9IIIB strain)
Test: Cell-Based HIV Infection Assay Using a Reporter (MT4-GFP cells)
Details: Human immunodeficiency virus 1, inflection point (IP) of viral growth inhibition; MT4-GFP cells infected with HIV-1 H9IIIB; 50% normal human serum; mean of at least two independent experiments; read-out: Cell Based IP (50% NHS)
How it was run: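 MT4-GFP cells (HIV LTR-driven GFP) bulk-infected with HIV-1 H9IIIB at low MOI for 24 h, washed, then exposed to compounds in RPMI plus 50% normal human serum, 0.4% DMSO. Infected cells counted at 24 and 48 h; R0 = 48 h/24 h ratio, inhibition normalised to DMSO and triple-drug control; IP from 4-parameter fit.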

Point of comparison: `COC(=O)N[C@H](C(=O)N[C@H]1CCCC[C@@H]1CC[C@H]1CN[C@@H]2CCCS(=O)(=O)N1C2)C(c1ccc(F)cc1)c1ccc(F)cc1` [Example 92, methyl [(1S)-1-[bis(4-fluorophenyl)methyl]-2-{[(1S,2R)-2-{2-[(6R,9S)-2,2-dioxido-2-thia-1,7-diazabicyclo[4.3.1]dec-9-yl]ethyl}cyclohexyl]amino}-2-oxoethyl]carbamate], EC50 56 nM. Against it:
- COc1ccc([C@H](c2ccc(Cl)cc2)[C@H](N)C(=O)N[C@H]2CCC[C@@H]2CC[C@H]2CN[C@@H]3CCCS(=O)(=O)N2C3)cn1 [Example 80, (βS)-4-chloro-N-[(1S,2R)-2-{2-[(6R,9S)-2,2-dioxido-2-thia-1,7-diazabicyclo[4.3.1]dec-9-yl]ethyl}cyclopentyl]-β-(6-methoxypyridin-3-yl)-L-phenylalaninamide] — within 1.5-fold, 71 nM
- N[C@H](C(=O)N[C@H]1CCC[C@@H]1CC[C@H]1CN[C@@H]2CCCS(=O)(=O)N1C2)[C@H](c1cncc(F)c1)c1ccc(Cl)c(F)c1 [Example 81, (βS)-4-chloro-N-[(1S,2R)-2-{2-[(6R,9S)-2,2-dioxido-2-thia-1,7-diazabicyclo[4.3.1]dec-9-yl]ethyl}cyclopentyl]-3-fluoro-β-(5-fluoropyridin-3-yl)-L-phenylalaninamide] — within 1.5-fold, 68 nM
- COC(=O)N[C@H](C(=O)N[C@H]1CCC[C@@H]1CC[C@H]1CN[C@@H]2CCCS(=O)(=O)N1C2)[C@@H](c1ccccc1)c1ccc(OC)nc1 [Example 82, methyl {(1S)-2-{[(1S,2R)-2-{2-[(6R,9S)-2,2-dioxido-2-thia-1,7-diazabicyclo[4.3.1]dec-9-yl]ethyl}cyclopentyl]amino}-1-[(S)-(6-methoxypyridin-3-yl)(phenyl)methyl]-2-oxoethyl}carbamate] — 2.9-fold higher, 160 nM
- COC(=O)N[C@H](C(=O)Nc1cccc(F)c1CC[C@H]1CN[C@@H]2CCCS(=O)(=O)N1C2)C(c1ccc(F)cc1)[C@H]1C[C@@H](C)O[C@@H](C)C1 (stereo partly drawn) [Example 83, methyl [(1S)-2-[(2R,4r,6S)-2,6-dimethyltetrahydro-2H-pyran-4-yl]-1-[(2-{2-[(6R,9S)-2,2-dioxido-2-thia-1,7-diazabicyclo[4.3.1]dec-9-yl]ethyl}-3-fluorophenyl)carbamoyl]-2-(4-fluorophenyl)ethyl]carbamate] — 6.8-fold lower, 8.2 nM
- N[C@H](C(=O)Nc1cccc(F)c1OCC1CNC2CCCS(=O)(=O)N1C2)[C@@H](c1ccc(F)cc1)c1cc(F)cc(F)c1 (stereo partly drawn) [Example 84, (βS)-β-(3,5-difluorophenyl)-N-{2-[(2,2-dioxido-2-thia-1,7-diazabicyclo[4.3.1]dec-9-yl)methoxy]-3-fluorophenyl}-4-fluoro-L-phenylalaninamide] — 3.8-fold higher, 210 nM
- COC(=O)N[C@H](C(=O)Nc1cccc(F)c1OCC1CNC2CCCS(=O)(=O)N1C2)[C@@H](c1ccc(F)cc1)c1cc(F)cc(F)c1 (stereo partly drawn) [Example 85, methyl [(1S,2S)-2-(3,5-difluorophenyl)-1-({2-[(2,2-dioxido-2-thia-1,7-diazabicyclo[4.3.1]dec-9-yl)methoxy]-3-fluorophenyl}carbamoyl)-2-(4-fluorophenyl)ethyl]carbamate] — 2.7-fold higher, 150 nM
- N[C@H](C(=O)Nc1cccc(F)c1CCC1CNC2CCCS(=O)(=O)N1C2)[C@@H](c1ccc(F)cc1)C12CC(C1)C2 (stereo partly drawn) [Example 86, (βR)-β-bicyclo[1.1.1]pent-1-yl-N-{2-[2-(2,2-dioxido-2-thia-1,7-diazabicyclo[4.3.1]dec-9-yl)ethyl]-3-fluorophenyl}-4-fluoro-L-phenylalaninamide] — 6.1-fold higher, 340 nM
- COC(=O)N[C@H](C(=O)Nc1cccc(F)c1CCC1CNC2CCCS(=O)(=O)N1C2)[C@@H](c1ccc(F)cc1)C12CC(C1)C2 (stereo partly drawn) [Example 87, methyl [(1S,2R)-2-bicyclo[1.1.1]pent-1-yl-1-({2-[2-(2,2-dioxido-2-thia-1,7-diazabicyclo[4.3.1]dec-9-yl)ethyl]-3-fluorophenyl}carbamoyl)-2-(4-fluorophenyl)ethyl]carbamate] — 2.3-fold higher, 130 nM
- CO[C@H](C(C)C)[C@H](c1ccc(F)cc1)[C@H](N)C(=O)Nc1cccc(F)c1CCC1CN[C@@H]2CCCS(=O)(=O)N1C2 (stereo partly drawn) [Example 88, (βR)-N-(2-{2-[(6R)-2,2-dioxido-2-thia-1,7-diazabicyclo[4.3.1]dec-9-yl]ethyl)-3-fluorophenyl)-4-fluoro-β-[(1R)-1-methoxy-2-methylpropyl]-L-phenylalaninamide] — 1.6-fold higher, 91 nM
- N[C@H](C(=O)Nc1cccc(F)c1CCC1CNC2CCCS(=O)(=O)N1C2)[C@@H](c1ccc(Cl)cc1)c1ccc(C(F)(F)F)nc1 (stereo partly drawn) [Example 89, (βS)-4-chloro-N-{2-[2-(2,2-dioxido-2-thia-1,7-diazabicyclo[4.3.1]dec-9-yl)ethyl]-3-fluorophenyl}-β-[6-(trifluoromethyl)pyridin-3-yl]-L-phenylalaninamide] — 11-fold lower, 5.1 nM
- COC(=O)N[C@H](C(=O)Nc1cccc(F)c1CCC1CN[C@@H]2CCCS(=O)(=O)N1C2)[C@H](CC(C)C)c1ccc(F)cc1 (stereo partly drawn) [Example 90, methyl [(1S,2R)-1-[(2-{2-[(6R)-2,2-dioxido-2-thia-1,7-diazabicyclo[4.3.1]dec-9-yl]ethyl}-3-fluorophenyl)carbamoyl]-2-(4-fluorophenyl)-4-methylpcnlyl]carbamate] — 2.4-fold lower, 23 nM
- N[C@H](C(=O)Nc1c(F)ccc(F)c1CC[C@H]1CN[C@@H]2CCCS(=O)(=O)N1C2)[C@@H](c1ccc(Cl)cc1)C1CCOCC1 [Example 91, (βR)-4-chloro-N-(2-{2-[(6R,9S)-2,2-dioxido-2-thia-1,7-diazabicyclo[4.3.1]dec-9-yl]ethyl}-3,6-difluorophenyl)-β-(tetrahydro-2H-pyran-4-yl)-L-phenylalaninamide] — 2.5-fold lower, 22 nM
- N[C@H](C(=O)N[C@H]1CCCC[C@@H]1CC[C@H]1CN[C@@H]2CCCS(=O)(=O)N1C2)C(c1ccc(F)cc1)c1ccc(F)cc1 [Example 93, N-[(1S,2R)-2-{2-[(6R,9S)-2,2-dioxido-2-thia-1,7-diazabicyclo[4.3.1]dec-9-yl]ethyl)cyclohexyl]-4-fluoro-β-(4-fluorophenyl)-L-phenylalaninamide] — the same, 56 nM
- CC(C)n1cc([C@H](c2ccc(Cl)cc2)[C@H](N)C(=O)Nc2cccc(F)c2CCC2CNC3CCCS(=O)(=O)N2C3)ccc1=O (stereo partly drawn) [Example 95, (βS)-4-chloro-N-{2-[2-(2,2-dioxido-2-thia-1,7-diazabicyclo[4.3.1]dec-9-yl)ethyl]-3-fluorophenyl}-β-[1-(1-methylethyl)-6-oxo-1,6-dihydropyridin-3-yl]-L-phenylalaninamide] — within 1.5-fold, 63 nM
- COC(=O)N[C@H](C(=O)N[C@H]1CCCC[C@@H]1CC[C@H]1CN[C@@H]2CCCS(=O)(=O)N1C2)[C@@H](c1ccc(Cl)cc1)C(C)C [Example 96, methyl [(1S,2S)-2-(4-chlorophenyl)-1-{[(1S,2R)-2-{2-[(6R,9S)-2,2-dioxido-2-thia-1,7-diazabicycIo[4.3.1]dec-9-yl]ethyl}cyclohexyl]carbamoyl}-3-methylbutyl]carbamate] — 3.2-fold higher, 180 nM
- COC(=O)N[C@H](C(=O)N[C@H]1CCCC[C@@H]1CC[C@H]1CN[C@@H]2CCCS(=O)(=O)N1C2)[C@H](c1cncc(C(F)(F)F)c1)c1ccc(Cl)c(F)c1 [Example 97, methyl {(1S,2S)-2-(4-chloro-3-fluorophenyl)-1-{[(1S,2R)-2-{2-[(6R,9S)-2,2-dioxido-2-thia-1,7-diazabicyclo[4.3.1]dec-9-yl]ethyl}cyclohexyl]carbamoyl}-2-[5-(trifluoromethyl)pyridin-3-yl]ethyl}carbamate] — 2.9-fold lower, 19 nM
- COC(=O)N[C@H](C(=O)N[C@H]1CCCC[C@@H]1CC[C@H]1CN[C@@H]2CCCS(=O)(=O)N1C2)[C@@H](c1ccc(Cl)cc1)c1ccc(OC)nc1 [Example 98, methyl [(1S,2S)-2-(4-chlorophenyl)-1-{[(1S,2R)-2-{2-[(6R,9S)-2,2-dioxido-2-thia-1,7-diazabicyclo[4.3.1]dec-9-yl]ethyl}cyclohexyl]carbamoyl}-2-(6-methoxypyridin-3-yl)ethyl]carbamate] — within 1.5-fold, 47 nM
- COC(=O)N[C@H](C(=O)N[C@H]1CCCC[C@@H]1CC[C@H]1CN[C@@H]2CCCS(=O)(=O)N1C2)[C@H](c1cncc(F)c1)c1ccc(Cl)c(F)c1 [Example 99, methyl [(1S,2S)-2-(4-chloro-3-fluorophenyl)-1-{[(1S,2R)-2-{2-[(6R,9S)-2,2-dioxido-2-thia-1,7-diazabicyclo[4.3.1]dec-9-yl]ethyl}cyclohexyl]carbamoyl}-2-(5-fluoropyridin-3-yl)ethyl]carbamate] — within 1.5-fold, 55 nM
- COC(=O)N[C@H](C(=O)N[C@H]1CCCC[C@@H]1CC[C@H]1CN[C@@H]2CCCS(=O)(=O)N1C2)[C@@H](c1ccc(Cl)cc1)c1cc(F)cc(F)c1 [Example 100, methyl [(1S,2S)-2-(4-chlorophenyl)-2-(3,5-difluorophenyl)-1-{[(1S,2R)-2-{2-[(6R,9S)-2,2-dioxido-2-thia-1,7-diazabicyclo[4.3.1]dec-9-yl]ethyl}cyclohexyl]carbamoyl}ethyl]carbamate] — 2.3-fold lower, 24 nM
- COC(=O)N[C@H](C(=O)Nc1cccc(F)c1CCC1CNC2CCCS(=O)(=O)N1C2)[C@@H](c1ccc(Cl)cc1)c1ccc(=O)n(C(C)C)c1 (stereo partly drawn) [Example 101, methyl {(1S,2S)-2-(4-chlorophenyl)-1-({2-[2-(2,2-dioxido-2-thia-1,7-diazabicyclo[4.3.1]dec-9-yl)ethyl]-3-fluorophenyl}carbamoyl)-2-[1-(1-methylethyl)-6-oxo-1,6-dihydropyridin-3-yl]ethyl}carbamate] — within 1.5-fold, 59 nM
- COC(=O)N[C@H](C(=O)Nc1cccc(F)c1CC[C@H]1CN[C@@H]2CCC(C)(C)S(=O)(=O)N1C2)[C@@H](c1ccc(F)cc1)[C@H]1C[C@@H](C)O[C@@H](C)C1 [Example 102, methyl {(1S)-2-[(2-{2-[(6R,9S)-3,3-dimethyl-2,2-dioxido-2-thia-1,7-diazabicyclo[4.3.1]dec-9-yl]ethyl}-3-fluorophenyl)amino]-1-[(R)-[(2R,4r,6S)-2,6-dimethyltetrahydro-2H-pyran-4-yl](4-fluorophenyl)methyl]-2-oxoethyl}carbamate] — 1.8-fold lower, 32 nM
